# Laboratory results: US20250090563A1, “COMPOSITION FOR PREVENTION, AMELIORATION OR TREATMENT OF INFLAMMATORY BOWEL DISEASE COMPRISING GALACTO-OLIGOSACCHARIDE” (NEO CREMAR CO., LTD., priority 2022, published 2025)
# Key:
# [1] = test system: IL-6; test: IL-6 level in colon tissue of DSS-induced colitis mice; type: in vivo, BALB/c mice
# Description: (§1) Mice were divided into seven groups of seven mice each. 1) A normal control group received purified water orally for 28 days. 2) A colitis group received purified water for 28 days and 5% DSS solution freely from days 21 to 28 to induce colitis. The galacto-oligosaccharide of the present disclosure was administered at a dose of 3) 400 mg/kg and 4) 800 mg/kg to two groups of colitis-induced mice, respectively, for 28 days. In addition, to colitis-induced mice, the galacto-oligosaccharides from 5) company A and 6) company B were each administered at a dose of 800 mg/kg for 28 days while 7) the positive control group was administered 100 mg/kg of the anti-inflammatory agent 5-ASA (5-aminosalicylic acid) for 28 days. On the 29th day, each mouse was sacrificed, and the length of the colon and small intestine and the weight of the spleen were measured and evaluated. After measurement, the colon tissue was cut into 1 cm lengths, and the cecum was excised and placed into separate Ep. tubes for storage in a deep freezer for future experiments. […]
# (§2) First, colon tissue samples were suspended in PBS containing a protease inhibitor (Roche Diagnostics Corp., Indianapolis, IN, USA) and homogenized uniformly using a TaKaRa BioMasher (Takara Bio Inc., Shiga, Japan). […] Protein concentration was quantified using a bicinchoninic acid kit (Thermo Scientific, Waltham, MA, USA).
# [2] = test system: mice with DSS-induced colitis; test: Colon length in DSS-induced acute colitis model; type: in vivo, BALB/c mice
# Description: as §1, with “For use in this experiment, female BALB/c mice (7 weeks old) were purchased from Saeronbio Inc. (Gyeonggi-do, Korea) and acclimatized for 7 days under SPF conditions at Kyonggi University (temperature 23±2° C., humidity 50±5%, 12-hour light/dark cycle). All experiments adhered to the guidelines of the university's Animal Ethics Committee. An acute colitis model was induced using dextran sodium sulfate (DSS). Mice” for “Mice”, “The galacto-oligosaccharide of the present disclosure was administered at a dose of 3) 400 mg/kg and 4) 800 mg/kg to two groups of colitis-induced mice, respectively, for 28 days.” left out, “experiments. Portions of the remaining colon tissue were fixed in a 4% formalin solution.” for “experiments.”
# [3] = test system: TNF-α; test: TNF-α level in colon tissue of DSS-induced colitis mice; type: in vivo, BALB/c mice
# Description: as §1, §2
# [4] = test system: mice with DSS-induced colitis; test: Disease activity index (DAI) in DSS-induced acute colitis model; type: in vivo, BALB/c mice
# Description: For use in this experiment, female BALB/c mice (7 weeks old) were purchased from Saeronbio Inc. (Gyeonggi-do, Korea) and acclimatized for 7 days under SPF conditions at Kyonggi University (temperature 23±2° C., humidity 50±5%, 12-hour light/dark cycle). All experiments adhered to the guidelines of the university's Animal Ethics Committee. An acute colitis model was induced using dextran sodium sulfate (DSS). Mice were divided into seven groups of seven mice each. 1) A normal control group received purified water orally for 28 days. 2) A colitis group received purified water for 28 days and 5% DSS solution freely from days 21 to 28 to induce colitis. […] On the 29th day, each mouse was sacrificed, and the length of the colon and small intestine and the weight of the spleen were measured and evaluated. […] During the DSS treatment, colitis severity was determined using the disease activity index (DAI), which measures weight loss, stool consistency, rectal bleeding, and perianal blood presence according to the criteria in Table 3. After monitoring with the naked eye every two days for eight days, the scores were summed and calculated. […]
# [5] = test system: myeloperoxidase (MPO); test: MPO level in colon tissue of DSS-induced colitis mice; type: in vivo, BALB/c mice; details: 100 mg/kg for 28 days (positive control)
# Description: as §1, §2
# [6] = test system: intestinal short chain fatty acids; test: Short chain fatty acid (SCFA) production in cecum of DSS-induced mice (GC); type: in vivo
# Description: To determine the effect of administering the galacto-oligosaccharide of the present disclosure on the intestinal short chain fatty acids in DSS-induced mice, 5-ASA and the GOS of the present disclosure were administered at low (7 mg/mouse), medium (14 mg/mouse), and high (21 mg/mouse) concentrations to DSS-induced mice according to the schedule described in Example 3-1. Afterward, the cecums of the mice were collected, homogenized with a homogenizer, and suspended in 80% methanol. The samples were then centrifuged at 13,000 rpm for 10 minutes, diluted to a final concentration of 1 g/mL, and filtered through a 0.45 μm syringe filter. Quantitative analysis of SCFAs was performed by preparing each STD at different concentrations and using 2-ethylbutyric acid as the internal standard (ISTD). The standard curves were calculated based on the peak area ratios. In brief, the SCFA content was measured using gas chromatography (GC) equipped with a DB-FFAP capillary column to determine the production capacity of six SCFAs (acetic acid, propionic acid, butyric acid, valeric acid, caproic acid, and heptanoic acid). The GC analysis conditions were as follows: 100° C. (0.5 min), 100° C.→180° C. (8° C./min), 180° C. (1.0 min), 180° C.→200° C. (20° C./min), 200° C. (5.0 min).
# [7] = test system: mucin and goblet cells in the colon; test: Histological analysis of colon (Alcian blue-PAS staining) in DSS-induced colitis mice; type: in vivo, BALB/c mice; details: colon sections, FIG. 9; dose not stated
# [8] = 100 mg/kg (positive control), DSS colitis mice
# [9] = 100 mg/kg for 28 days (positive control), DSS colitis
# [10] = 100 mg/kg for 28 days (positive control), 5% DSS days 21-28
# [11] = PC, dose 100 mg/kg, DSS-induced mice
smiles,measurement,setting,value
"Nc1ccc(O)c(C(=O)O)c1 [5-ASA, 5-aminosalicylic acid]","Level of IL-6 versus DSS group, in words",[1]; [8],greatly reduced
same,IL-6,[1]; [9],12 pg/mg
same,"Inhibition of the reduction of colon length, in words",[2]; [8],showed an efficacy in inhibiting the reduction of colon length
same,Colon length,[2]; [10],5.2 cm
same,"Level of TNF-α versus DSS group, in words",[3]; [8],greatly reduced
same,TNF-α,[3]; [9],100 pg/mg
same,"Colitis amelioration effect (DAI), in words",[4]; [8],did not show any colitis amelioration effect
same,Disease Activity Index of 8 day (Score),[4]; [10],10.3 Score
same,MPO,[5],45 pg/mg
same,"All SCFAs except acetic acid compared to the NC treated with 5% DSS alone, in words","[6]; PC group, cecum",slight increase
same,"Acetic acid, share of total SCFA (value in parentheses)",[6]; [11],73.3
same,"Acetic acid, short chain fatty acid production in cecum",[6]; [11],8917 µM
same,"Butyric acid, share of total SCFA (value in parentheses)",[6]; [11],15.8
same,"Butyric acid, short chain fatty acid production in cecum",[6]; [11],1923 µM
same,"Propionic acid, share of total SCFA (value in parentheses)",[6]; [11],10.9
same,"Propionic acid, short chain fatty acid production in cecum",[6]; [11],1321 µM
same,"Total SCFA, share of total SCFA (value in parentheses)",[6]; [11],100
same,"Total SCFA, short chain fatty acid production in cecum",[6]; [11],12161 µM
same,Amount of mucin (Alcian blue-PAS) compared to the DSS-treated group,[7],the amount of mucin recovered
same,Goblet cells compared to the DSS-treated group,[7],goblet cells were observed
